Values of other authors, collected in patent US7541158B2, “Taste receptors of the T1R family from domestic dog” (Monell Chemical Senses Center, priority 2004, dated 2009).

What was measured:
dog = conditions: neurophysiological studies; mono- and disaccharides and sweeteners
dog taste nerve fibers = conditions: for response of dog taste nerve fibers that respond to sucrose: sucrose-responsive fibers

Structure (SMILES)	taste response activity in the dog (dog)	taste quality perceived by dog (domestic dog)	response of dog taste nerve fibers fired by saccharin (dog taste nerve fibers; saccharin-responsive fibers)	response of dog taste nerve fibers that respond to sucrose (dog taste nerve fibers)	behavioral preference (domestic dog; behavior said to be congenital)
O=C(CO)[C@@H](O)[C@H](O)[C@H](O)CO [D-fructose]	Particularly active				
O=C1NS(=O)(=O)c2ccccc21 [saccharin]		bitter	fired	no response	
OC[C@H]1O[C@@](CO)(O[C@H]2O[C@H](CO)[C@@H](O)[C@H](O)[C@H]2O)[C@@H](O)[C@@H]1O [sucrose]	Particularly active			responded	shows a preference
OC[C@H]1O[C@](O)(CO)[C@@H](O)[C@@H]1O [β-D-fructose]	Particularly active				
